Data on five compounds can be found in patent publication US20130123287A1, “CONTROL AGENT FOR SOFT ROT AND CONTROL METHOD FOR THE SAME” (ISHIHARA SANGYO KAISHA, LTD., priority 2010, published 2013).

In experiment [1] the test system is soft rot of Chinese cabbage. Put plainly: Test for controlling soft rot of Chinese cabbage, Example 2 / Comparative Example 2 (field, cultivar Harebutai 65). The format is in vivo. The following applies: 150 L/10 a sprayed onto planting holes before planting, 64 days after start. The source says:
Frequency of the disease=[sigma(number of plants with the onset of the disease at each severity level*index of the onset of the disease)/(plants examined*4)]*100
Disease control value=[1-(frequency of the disease in the treated lot/frequency of the disease in the non-treated lot)]*100
• 0: No onset • 1: Onset in some of outer leaves (shippable) • 2: Onset in outer leaves and some of head leaves (by removing damaged parts, the resulting cabbage can be shipped as small cabbage but is ranked as grade B). • 3: Most of head leaves are inflicted with the onset of the disease or with severer damages (not shippable) • 4: Whole cabbage plant is inflicted with the onset of the disease and is dead.
200 g/l Azoxystrobin (Amistar 20 FLOWABLE [trade name], manufactured by Syngenta Japan K.K.) was adjusted to 500 g ai/10a (0.5 g/m^2, 2500 ml Product/10a) as the amount of the active ingredient and to 150 L/10a as the volume of diluent water.
30% w/w triflumizol (TRIFUMIN WP [trade name], manufactured by Nippon Soda Co., Ltd.) was adjusted to 500 g ai/10a (0.5 g/m^2, 1667 g Product/10a) as the amount of the active ingredient and to 150 L/10a as the volume of diluent water.
100 g/1 cyazofamid (RANMAN PLOWABLE [trade name], manufactured by Ishihara Sangyo Kaisha, Ltd.) was adjusted to 500 g ai/10a (0.5 g/m^2, 5000 ml Product/10a) as the amount of the active ingredient and to 150 L/10a as the volume of diluent water.
50% w/w penthiopyrad (GAIA WG [trade name], manufactured by Mitsui Chemicals Agro, Inc.) was adjusted to 500 g ai/10a (0.5 g/m^2, 1000 g Product/10a) as the amount of the active ingredient and to 150 L/10a as the volume of diluent water.
50 g/l flusulfamide (SCABLOCK SC [trade name], manufactured by Mitsui Chemicals Agro, Inc.) was adjusted to 500 g ai/10a (0.5 g/m^2, 10000 ml Product/10a) as the amount of the active ingredient and to 150 L/10a as the volume of diluent water.
400 g/1 chlorothalonil (Daconil 1000 [the trade name], manufactured by Sumitomo Chemical, Limited) was adjusted to 1000 g ai/10a (1.0 g/m^2, 2500 ml Product/10a) as the amount of the active ingredient and to 150 L/10a as the volume of diluent water.
After spreading an agricultural mulch-sheet and opening planting holes (diameter of about 5 cm) for permanent planting through the mulch-sheet, the spray solutions prepared as described above were sprayed onto the planting holes such that the amount of treated active ingredient of chlorothalonil was 1.0 g/m^2 (150 L per 10a) and the amount of each of the remaining spray solutions was 0.5 g/m^2 (150 L per 10a), followed by air-drying; subsequently, seedlings of Chinese cabbage (cultivar Harebutai 65) grown for 4 weeks in cell mold trays (128 holes/nursery box) were planted such that 19 seedlings were planted in each test lot having an area of 2.4 m^2 with two replications.
(§1) Preparation was performed by diluting streptomycin (Mycin 20 wettable powder solution [under the trade name] manufactured by Hokko Chemical Industry Co., Ltd.) with water to 1/1000.
In a field spread with the agricultural mulch-sheet, Chinese cabbage seedlings (cultivar: Harebutai 65) grown by the same method as in Example 2 were planted by the same method as in Example 2, for spraying the spray solution of streptomycin prepared above in (1) (at each spray volume of 300 L/10a) twice (27 days and 48 days after the planting of the seedlings) on the stems and leaves with a sprayer.
64 days after the start of the tests, all the plants in each lot were examined about the severity level of the disease to assess the frequency of the disease and the disease control value. In the same manner as described above, the frequency of the disease and the disease control value were determined. Additionally, soft rot is a disease with damages hardly controlled, so even a chemical at the level C determined by the tests of the effects can practically be used.

Experiment [2] deals with bacteria causing the soft rot (Erwinia carotovora). Put plainly: Inhibition test of growth of bacteria causing soft rot, Reference Test Example 3. Format: cell-based. The note with it: for formed colonies (growth state), grade: PSA medium, 27 degrees Celsius, 2 days; for inhibition of growth of Erwinia carotovora (in words): active ingredient concentration of 1,000 ppm. The source says: (§2) Inhibition test of growth of bacteria causing soft rot of potato An inhibition test of the growth of bacteria causing the soft rot was done, when a control agent was directly applied to the bacteria causing the soft rot. A given volume of each pesticide of triflumizol (TRIFUMIN WP [trade name] manufactured by Nippon Soda Co., Ltd.), chlorothalonil (Daconil 1000 [trade name], manufactured by Sumitomo Chemical Company, Limited) and streptomycin (Mycin Wettable powder [trade name] manufactured by Hokko Chemical Industry Co., Ltd.) was added together with a suspension of the bacteria causing the soft rot (Erwinia carotovora) to a preliminarily dissolved PSA culture medium (55 degrees Celsius) for subsequent thorough agitation, which was then spread on a plate for culturing at 27 degrees Celsius for 2 days, to examine the growth state. Subsequently, the formed colonies were examined according to the following three grades. • +: at the same level as the level of non-treated lot. Plus or minus: apparently less than the colonies of the non-treated lot. • −: almost no colonies observed.

Experiment [3] has the same test system. As to the kind of experiment: Inhibition test of growth of bacteria causing soft rot, Reference Test Example 2. Format: cell-based. The note with it: for formed colonies (growth state), grade: PSA medium, 27 degrees Celsius, 2 days; for inhibition of growth of Erwinia carotovora (in words): active ingredient concentration of 1,000 ppm.
From the text: as §2, with “azoxystrobin (Amistar-20 FLOWABLE [trade name], manufactured by Syngenta Japan K.K.), penthiopyrad (GAIA WG [trade name], manufactured by Mitsui Chemicals Agro, Inc.), flusulfamide (SCABLOCK SC” for “triflumizol (TRIFUMIN WP”, “Mitsui Chemicals Agro, Inc.),” for “Nippon Soda Co., Ltd.), chlorothalonil (Daconil 1000 [trade name], manufactured by Sumitomo Chemical Company, Limited)”, “lot.” for “lot. Plus or minus: apparently less than the colonies of the non-treated lot. • −: almost no colonies observed.”
(§3) Plus or minus: apparently less than the colonies of the non-treated lot. • −: almost no colonies observed.

In experiment [4] the test system is soft rot of Chinese cabbage. Put plainly: Test for controlling soft rot of Chinese cabbage, Example 1 / Comparative Example 1 (field, cultivar Muso). Format: in vivo. The following applies: 250 g ai/10 a, 150 L/10 a sprayed onto planting holes before planting, 54 days after start. The procedure:
200 g/l Azoxystrobin (Amistar 20 FLOWABLE [trade name], manufactured by Syngenta Japan K.K.) was adjusted to 250 g ai/10a (0.25 g/m^2, 1250 ml Product/10a) as the amount of the active ingredient and to 150 L/10a as the volume of diluent water.
100 g/l Cyazofamid (RANMAN FLOWABLE [trade name], manufactured by Ishihara Sangyo Kaisha, Ltd.) was adjusted to 250 g ai/10a (0.25 g/m^2, 2500 ml Product/10a) as the amount of the active ingredient and to 150 L/10a as the volume of diluent water.
177 g/l Amisulbrom (LEIMAY FLOWABLE [trade name], manufactured by Nissan Chemical Industries, Ltd.) was adjusted individually to 250 g ai/10a (0.25 g/m^2, 1412 ml Product/10a) as the amount of the active ingredient and to 150 L/10a as the volume of diluent water.
After spreading an agricultural mulch-sheet and opening planting holes (diameter of about 9 cm) for permanent planting through the mulch-sheet, the spray solutions prepared as described above were sprayed onto the planting holes such that the amount of treated active ingredient of each spray solution was 0.25 g/m^2 (150 L per 10a), followed by air-drying; subsequently, seedlings of Chinese cabbage (cultivar: Muso) grown for 4 weeks in cell mold trays (128 holes/nursery box) were planted such that 30 seedlings were planted in each test lot having an area of 6 m^2 with two replications.
as §1
In a field spread with the agricultural mulch-sheet, Chinese cabbage seedlings (cultivar: Muso) grown by the same method as in Example 1 were planted by the same method as in Example 1, for spraying the spray solution of streptomycin prepared above in (1) (at each spray volume of 300 L/10a) three times (13 days, 20 days and 27 days after the planting of the seedlings) on the stems and leaves.
54 days after the start of the tests, all the plants in each lot were examined about the severity level of the disease; according to the following equations, the ratio of the plants with the onset of the disease, the frequency of the disease, and the disease control value were calculated to determine and rank the effects at A to D levels. Because soft rot is a disease with damages hardly controlled, herein, even a chemical at the level C determined by the tests of the effects can practically be used.
Ratio of the plants with the onset of the disease=(Number of plants with the onset of the disease/number of plants examined)*100
Frequency of the disease=[sigma(number of plants with the onset of the disease at each severity level*index of the onset of the disease)/(plants examined*4)]*100 […]

In experiment [5] the test system is bacteria causing the soft rot (Erwinia carotovora). Put plainly: Inhibition test of growth of bacteria causing soft rot, Reference Test Example 1. Format: cell-based. The note with it: for formed colonies (growth state), grade: PSA medium, 25 degrees Celsius, 4 days. The procedure:
An inhibition test of the growth of bacteria causing the soft rot was done, when a control agent was directly applied to the bacteria causing the soft rot. A given volume of each pesticide of cyazofamid (RANMAN 400SC [trade name] manufactured by Ishihara Sangyo Kaisha, Ltd.), amisulbrom (LEIMAY FLOWABLE [trade name], manufactured by Nissan Chemical Industries, Ltd.) and streptomycin (Mycin Wettable powder [trade name] manufactured by Hokko Chemical Industry Co., Ltd.) was added together with a suspension of the bacteria causing the soft rot (Erwinia carotovora) to a preliminarily dissolved PSA culture medium (55 degrees Celsius) for subsequent thorough agitation, which was then spread on a plate for culturing at 25 degrees Celsius for 4 days, to examine the growth state. Subsequently, the formed colonies were examined according to the following three grades. • +: at the same level as the level of non-treated lot.
as §3

`CCCOC/C(=N\c1ccc(Cl)cc1C(F)(F)F)n1ccnc1` [Triflumizol, (E)-4-chloro-alpha,alpha,alpha-trifluoro-N-[1-imidazol-1-yl-2-propoxyethylidene]-o-to luidine]: the Determination of effect result in experiment [1] (500 g ai/10 a) is on record as “C (C: Effective at low level (21 to 40 disease control value))”. Further, the “formed colonies (growth state), grade” value in experiment [2] (100 ppm active ingredient) is on record as “+, +”; in experiment [2] (500 ppm active ingredient), “+, +”; in experiment [2] (1000 ppm active ingredient) it was “+, +”. Moreover, the “inhibition of growth of Erwinia carotovora (in words)” value (“inhibition” for short) in experiment [2] was “never inhibited the growth”.

With `O=[N+]([O-])c1ccc(NS(=O)(=O)c2ccc(Cl)c(C(F)(F)F)c2)c(Cl)c1` [Flusulfamide, 2′, 4-dichloro-alpha,alpha,alpha-trifluoro-4′-nitro-m-toluenesulfone anilide], in experiment [1] (500 g ai/10 a), the Determination of effect entry is reported as “B (B: Effective (41 to 60 disease control value))”. The “formed colonies (growth state), grade” value in experiment [3] (100 ppm active ingredient) is “+, +”; in experiment [3] (500 ppm active ingredient), “+, +”; in experiment [3] (1000 ppm active ingredient), “+, +”. The “inhibition” value in experiment [3] is listed as “never inhibited the growth”.

For the compound `Cc1c(Br)c2ccc(F)cc2n1S(=O)(=O)c1ncn(S(=O)(=O)N(C)C)n1` [Amisulbrom, 3-[(3-bromo-6-fluoro-2-methyl-1H-indol-1-yl)sulfonyl]-N,N-dimethyl-1H-1,2,4-triazole-1-sulfoneamide], in experiment [4], the Determination of effect result is given as “C (C: Effective at low level (21 to 40 disease control value))”. Further, the “formed colonies (growth state), grade” value in experiment [5] (100 ppm active ingredient) is reported as “+, +”; in experiment [5] (500 ppm active ingredient) it was “+, +”; in experiment [5] (1000 ppm active ingredient) it was “+, +”. For the same compound, in experiment [5] (active ingredient concentration of 1,000 ppm), the “inhibition” value is given as “never inhibited the growth”.

As for `CC(C)CC(C)c1sccc1NC(=O)c1cn(C)nc1C(F)(F)F` (racemic) [Penthiopyrad, (RS)-N-[2-(1,3-dimethylbutyl)-3-thienyl]-1-methyl-3-(trifluoromethyl)-1H-pyrazole-4-carboxamide], the Determination of effect result in experiment [1] (500 g ai/10 a) is listed as “C (C: Effective at low level (21 to 40 disease control value))”. Moreover, the “formed colonies (growth state), grade” value is recorded as “+, +” in experiment [3] (100 ppm active ingredient); “+, +” in experiment [3] (500 ppm active ingredient); “+, +” in experiment [3] (1000 ppm active ingredient). The “inhibition” value in experiment [3] was “never inhibited the growth”.

As for `N#Cc1c(Cl)c(Cl)c(Cl)c(C#N)c1Cl` [Chlorothalonil, 2,4,5,6-tetrachloro-1,3-benzene dicarbonitrile], the Determination of effect result in experiment [1] (1000 g ai/10 a) is on record as “B (B: Effective (41 to 60 disease control value))”. Moreover, the “formed colonies (growth state), grade” value in experiment [2] (100 ppm active ingredient) was “+, +”; in experiment [2] (500 ppm active ingredient) it was “+, +”; in experiment [2] (1000 ppm active ingredient) it was “+, +”. Also, in experiment [2], the “inhibition” value is listed as “never inhibited the growth”.
